Measured values published in patent publication US9862708B2, “Pyrazolone compounds and uses thereof” (Tempest Therapeutics, Inc., priority 2014, dated 2018).
Like-named read-outs stand apart in the source and are kept apart here. One block for each compound: values may come before it.

Tests used:
Format in all cases: cell-based
human PPARα = molecular target: T1, human PPARα (Homo sapiens, UniProt Q07869); assay: Human PPARα Reporter Assay (luciferase, Indigo Biosciences)
T1 construct: host or cells: proprietary non-human mammalian cells
T1 sequence (Q07869 1-468): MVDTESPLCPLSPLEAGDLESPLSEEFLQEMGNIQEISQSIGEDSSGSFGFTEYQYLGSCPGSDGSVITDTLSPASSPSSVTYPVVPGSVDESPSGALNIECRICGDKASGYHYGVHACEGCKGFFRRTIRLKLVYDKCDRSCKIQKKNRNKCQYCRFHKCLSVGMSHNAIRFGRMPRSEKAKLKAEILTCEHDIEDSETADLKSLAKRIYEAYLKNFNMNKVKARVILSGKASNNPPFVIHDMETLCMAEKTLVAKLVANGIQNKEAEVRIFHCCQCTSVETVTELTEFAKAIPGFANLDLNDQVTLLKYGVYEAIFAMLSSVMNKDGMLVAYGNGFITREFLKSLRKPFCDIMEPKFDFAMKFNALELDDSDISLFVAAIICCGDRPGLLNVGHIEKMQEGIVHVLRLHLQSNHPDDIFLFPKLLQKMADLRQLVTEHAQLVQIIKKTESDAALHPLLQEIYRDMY
Experimental: Human PPARα Reporter Assay
The screening of test compounds for agonist or antagonist activities against human PPARα receptors was performed using a commercial kit, Human PPARα Reporter Assay System (Indigo Biosciences, Cat. #IB00111).
This nuclear receptor assay system utilizes proprietary non-human mammalian cells engineered to provide constitutive, high-level expression of Human PPARα. Because these cells incorporate a PPARα-responsive luciferase reporter gene, quantifying expressed luciferase activity provides a sensitive surrogate measure of PPARα activity in the treated cells. The primary application of this reporter assay system is in the screening of test samples to quantify any functional activity, either agonist or antagonist, that they may exert against human PPARα.
Briefly, reporter cells are dispensed into wells of the assay plate and then immediately dosed with test compounds. Following an overnight incubation, the treatment media is discarded and Luciferase Detection Reagent (LDR) is added. The intensity of light emission from the ensuing luciferase reaction provides a sensitive measure that is directly proportional to the relative level of PPARα activation in the reporter cells.

PPAR beta/delta = molecular target: T2, PPAR beta/delta (Homo sapiens, UniProt Q03181); assay: PPAR β/δ reporter counterscreen (Indigo Biosciences kit); settings: receptor agonist at ~EC80 for antagonist potency
T2 construct: host or cells: engineered reporter cells of the kit (analogous to the PPARα kit: non-human mammalian)
T2 sequence (Q03181 1-441): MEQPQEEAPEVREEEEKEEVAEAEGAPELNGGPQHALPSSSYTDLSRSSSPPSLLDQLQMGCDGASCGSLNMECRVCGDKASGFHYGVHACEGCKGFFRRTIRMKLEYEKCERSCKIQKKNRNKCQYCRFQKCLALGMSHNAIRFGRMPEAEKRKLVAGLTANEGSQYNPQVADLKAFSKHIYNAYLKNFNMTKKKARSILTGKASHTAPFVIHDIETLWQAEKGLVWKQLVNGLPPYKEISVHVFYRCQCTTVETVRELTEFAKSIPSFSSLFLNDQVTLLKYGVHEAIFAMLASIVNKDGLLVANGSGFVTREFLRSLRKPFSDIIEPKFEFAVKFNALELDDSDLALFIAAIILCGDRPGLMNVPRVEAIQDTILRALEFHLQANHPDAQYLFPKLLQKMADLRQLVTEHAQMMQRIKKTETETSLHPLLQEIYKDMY
Experimental: (§1) To determine species selectivity, a Mouse PPARα Reporter Assay System was used (Indigo Biosciences, Cat. #M00111). Activity of test compounds to antagonize or agonize other isoforms of human PPAR, for example β/δ and γ, were assessed using the corresponding kits from Indigo Biosciences (Cat. #IB00121 and #IB00101, respectively). In addition to PPAR activity, compounds were also screened for activity against other nuclear hormone receptors including Estrogen Receptor β, Glucocorticoid Receptor and Thyroid Receptor β using commercially available kits (Indigo Biosciences, Cat. #IB00411, IB00201 and IB01101, respectively). Each assay system from Indigo Biosciences uses technology analogous to the human
(§2) PPARα kit, with the variance being that the cells used for each assay were engineered to over-express the receptor of interest. In addition, the appropriate receptor agonist (included with each kit) was used at ˜EC80 for assays in which antagonist potency was being assessed.

PPAR gamma = molecular target: T3, PPAR gamma (Homo sapiens, UniProt P37231); assay: PPAR γ reporter counterscreen (Indigo Biosciences kit); settings: receptor agonist at ~EC80 for antagonist potency
T3 construct: host or cells: engineered reporter cells of the kit (analogous to the PPARα kit: non-human mammalian)
T3 sequence (P37231 1-505): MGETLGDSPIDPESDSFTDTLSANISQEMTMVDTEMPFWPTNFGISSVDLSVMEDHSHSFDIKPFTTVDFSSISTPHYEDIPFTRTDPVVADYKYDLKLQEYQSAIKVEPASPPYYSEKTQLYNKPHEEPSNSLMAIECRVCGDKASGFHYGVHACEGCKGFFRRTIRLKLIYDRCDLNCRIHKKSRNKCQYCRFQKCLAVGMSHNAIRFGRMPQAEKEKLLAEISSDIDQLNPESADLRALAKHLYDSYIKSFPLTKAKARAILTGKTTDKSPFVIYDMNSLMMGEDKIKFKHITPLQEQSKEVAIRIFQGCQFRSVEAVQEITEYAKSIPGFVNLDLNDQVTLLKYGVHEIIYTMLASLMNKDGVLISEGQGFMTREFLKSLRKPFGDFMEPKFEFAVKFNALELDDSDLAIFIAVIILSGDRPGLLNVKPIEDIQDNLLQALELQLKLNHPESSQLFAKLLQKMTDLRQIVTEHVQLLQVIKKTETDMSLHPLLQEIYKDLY
Experimental: as §1, §2

Thyroid Receptor β = molecular target: T4, Thyroid Receptor β (Homo sapiens, UniProt P10828); assay: Thyroid Receptor β reporter counterscreen (Indigo Biosciences kit); settings: receptor agonist at ~EC80 for antagonist potency
T4 construct: host or cells: engineered reporter cells of the kit
T4 sequence (P10828 1-461): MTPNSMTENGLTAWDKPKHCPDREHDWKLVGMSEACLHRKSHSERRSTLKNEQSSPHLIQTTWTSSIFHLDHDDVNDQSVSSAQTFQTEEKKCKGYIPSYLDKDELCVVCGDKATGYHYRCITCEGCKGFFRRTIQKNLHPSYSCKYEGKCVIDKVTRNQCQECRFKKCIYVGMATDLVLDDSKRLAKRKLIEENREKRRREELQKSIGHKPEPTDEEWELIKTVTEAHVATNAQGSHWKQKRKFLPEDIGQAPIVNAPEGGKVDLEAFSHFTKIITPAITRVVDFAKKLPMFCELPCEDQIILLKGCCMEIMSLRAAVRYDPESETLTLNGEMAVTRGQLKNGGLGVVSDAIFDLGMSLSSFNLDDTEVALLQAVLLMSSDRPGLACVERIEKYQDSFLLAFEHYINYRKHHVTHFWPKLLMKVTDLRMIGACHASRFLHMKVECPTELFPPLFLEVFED
Experimental: as §1, §2

Glucocorticoid Receptor = molecular target: T5, Glucocorticoid Receptor (Homo sapiens, UniProt P04150); assay: Glucocorticoid Receptor reporter counterscreen (Indigo Biosciences kit); settings: receptor agonist at ~EC80 for antagonist potency
T5 construct: host or cells: engineered reporter cells of the kit
T5 sequence (P04150 1-777): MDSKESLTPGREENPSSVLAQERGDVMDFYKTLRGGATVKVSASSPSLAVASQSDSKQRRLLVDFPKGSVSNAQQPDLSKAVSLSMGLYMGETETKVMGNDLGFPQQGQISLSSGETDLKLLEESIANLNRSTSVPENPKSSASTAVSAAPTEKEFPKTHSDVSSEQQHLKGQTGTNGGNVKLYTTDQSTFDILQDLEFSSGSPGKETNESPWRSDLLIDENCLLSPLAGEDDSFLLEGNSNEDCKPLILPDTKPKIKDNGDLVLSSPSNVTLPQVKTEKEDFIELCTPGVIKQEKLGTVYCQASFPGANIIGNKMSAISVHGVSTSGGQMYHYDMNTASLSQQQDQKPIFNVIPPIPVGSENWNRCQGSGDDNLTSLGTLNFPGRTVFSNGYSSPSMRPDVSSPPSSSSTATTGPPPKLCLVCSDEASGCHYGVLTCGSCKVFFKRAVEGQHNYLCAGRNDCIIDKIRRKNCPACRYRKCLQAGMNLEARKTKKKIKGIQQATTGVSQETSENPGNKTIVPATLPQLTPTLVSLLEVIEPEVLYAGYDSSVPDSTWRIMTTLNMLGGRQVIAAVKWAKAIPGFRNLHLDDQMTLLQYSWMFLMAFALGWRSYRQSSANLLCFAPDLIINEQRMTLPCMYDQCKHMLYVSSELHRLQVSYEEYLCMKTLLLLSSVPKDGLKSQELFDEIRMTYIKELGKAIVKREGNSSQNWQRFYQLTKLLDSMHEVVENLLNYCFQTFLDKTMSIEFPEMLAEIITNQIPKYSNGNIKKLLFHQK
Experimental: as §1, §2

Estrogen Receptor β = molecular target: T6, Estrogen Receptor β (Homo sapiens, UniProt Q92731); assay: Estrogen Receptor β reporter counterscreen (Indigo Biosciences kit); settings: receptor agonist at ~EC80 for antagonist potency
T6 construct: host or cells: engineered reporter cells of the kit
Experimental: as §1, §2

[1] = antagonism, luciferase reporter cells, overnight incubation, read-out: PPARα IC50

T6 sequence (Q92731 whole entry): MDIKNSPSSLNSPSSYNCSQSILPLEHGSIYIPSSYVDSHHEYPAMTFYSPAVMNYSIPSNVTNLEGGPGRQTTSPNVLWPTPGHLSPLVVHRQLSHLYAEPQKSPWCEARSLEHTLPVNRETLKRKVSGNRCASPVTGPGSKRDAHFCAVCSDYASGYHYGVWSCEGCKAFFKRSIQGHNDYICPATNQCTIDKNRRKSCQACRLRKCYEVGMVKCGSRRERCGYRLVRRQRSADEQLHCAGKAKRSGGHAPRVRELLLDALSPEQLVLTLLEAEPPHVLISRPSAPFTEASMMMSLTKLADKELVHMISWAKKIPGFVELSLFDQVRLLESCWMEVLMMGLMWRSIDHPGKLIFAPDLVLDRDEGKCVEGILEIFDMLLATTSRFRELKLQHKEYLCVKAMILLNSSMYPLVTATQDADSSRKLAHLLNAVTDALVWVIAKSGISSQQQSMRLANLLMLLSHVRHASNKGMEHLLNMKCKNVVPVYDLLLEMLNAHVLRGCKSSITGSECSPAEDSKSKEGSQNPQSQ

SMILES: CC(C)(Oc1ccc(CCCC2=NN(c3ccc(C(F)(F)F)cc3)C(=O)C2(C)C)cc1)C(=O)C(F)(F)F [Example 44, 4,4-dimethyl-3-(3-(4-((4,4,4-trifluoro-2-methyl-3-oxobutan-2-yl)oxy)phenyl)propyl)-1-(4-(trifluoromethyl)phenyl)-1H-pyrazol-5(4H)-one]
IC50 (human PPARα; [1]): 0.61 µM

SMILES: CC(C)(CN)Oc1ccc(CCCC2=NN(c3ccc(C(F)(F)F)cc3)C(=O)C23CCCC3)cc1 [Example 45, 4-(3-(4-((1-amino-2-methylpropan-2-yl)oxy)phenyl)propyl)-2-(4-(trifluoromethyl)phenyl)-2,3-diazaspiro[4,4]non-3-en-1-one]
IC50 (human PPARα; [1]): 0.84 µM

SMILES: CC(C)(CNS(=O)(=O)c1ccccc1)Oc1ccc(CCCC2=NN(c3ccc(C(F)(F)F)cc3)C(=O)C23CCCC3)cc1 [Example 46, N-(2-methyl-2-(4-(3-(4-oxo-3-(4-(trifluoromethyl)phenyl)-2,3-diazaspiro[4,4]non-1-en-1-yl)propyl)phenoxy)propyl)benzenesulfonamide]
IC50 (human PPARα; [1]): 1.3 µM

SMILES: CC(C)(CNC(=O)c1ccccc1)Oc1ccc(CCCC2=NN(c3ccc(C(F)(F)F)cc3)C(=O)C23CCCC3)cc1 [Example 47, N-(2-methyl-2-(4-(3-(4-oxo-3-(4-(trifluoromethyl)phenyl)-2,3-diazaspiro[4,4]non-1-en-1-yl)propyl)phenoxy)propyl)benzamide]
IC50 (human PPARα; [1]): 0.58 µM

SMILES: CCOc1ccc(-c2ccc(CCCC3=NN(Cc4ccc(C(C)(C)C)cc4)C(=O)C3(C)C)cc2)cc1CC(=O)O [Example 55, 2-(4′-(3-(1-(4-(tert-butyl)benzyl)-4,4-dimethyl-5-oxo-4,5-dihydro-1H-pyrazol-3-yl)propyl)-4-ethoxy-[1,1′-biphenyl]-3-yl)acetic acid]
IC50 (human PPARα; [1]): 0.11 µM

These reach a lower IC50 (human PPARα; [1]). Values come first.

IC50 (human PPARα; [1]): 0.0047 µM
SMILES: CC1(C)C(=O)N(c2ccc(C(F)(F)F)cc2)N=C1CCCc1ccc(OC(C(=O)O)c2ccccc2)cc1 (centres unmarked) [Example 48, 2-(4-(3-(4,4-dimethyl-5-oxo-1-(4-(trifluoromethyl)phenyl)-4,5-dihydro-1H-pyrazol-3-yl)propyl)phenoxy)-2-phenylacetic acid]

IC50 (human PPARα; [1]): 0.054 µM
SMILES: CC1(C)C(=O)N(c2ccc(C(F)(F)F)cc2)N=C1CCCc1ccc(OCC(=O)O)cc1 [Example 49, 2-(4-(3-(4,4-dimethyl-5-oxo-1-(4-(trifluoromethyl)phenyl)-4,5-dihydro-1H-pyrazol-3-yl)propyl)phenoxy)acetic acid]

IC50 (human PPARα; Target Selectivity - Counterscreen table, read-out: PPAR alpha IC50): 0.0024 µM | IC50 (human PPARα; [1]): 0.0024 µM | IC50 (PPAR beta/delta): 22 µM | IC50 (PPAR gamma): 56 µM | IC50 (Thyroid Receptor β): 61 µM | IC50 (Glucocorticoid Receptor): 36 µM | IC50 (Estrogen Receptor β): 36 µM
SMILES: CC1(C)C(=O)N(c2ccc(C(F)(F)F)cc2)N=C1CCCc1ccc(OC2(C(=O)O)CCC2)cc1 [Example 50, 1-(4-(3-(4,4-dimethyl-5-oxo-1-(4-(trifluoromethyl)phenyl)-4,5-dihydro-1H-pyrazol-3-yl)propyl)phenoxy)cyclobutanecarboxylic acid]

IC50 (human PPARα; [1]): 0.058 µM
SMILES: CC1(C)C(=O)N(c2cccc(C(F)(F)F)c2)N=C1CCCc1ccc(OC2(C(=O)O)CCC2)cc1 [Example 51, 1-(4-(3-(4,4-dimethyl-5-oxo-1-(3-(trifluoromethyl)phenyl)-4,5-dihydro-1H-pyrazol-3-yl)propyl)phenoxy)cyclobutanecarboxylic acid]

IC50 (human PPARα; [1]): 0.0041 µM
SMILES: CC1(C)C(=O)N(c2ccc(C(F)(F)F)cc2)N=C1CCCc1ccc(OC2(C(=O)O)CCCC2)cc1 [Example 52, 1-(4-(3-(4,4-dimethyl-5-oxo-1-(4-(trifluoromethyl)phenyl)-4,5-dihydro-1H-pyrazol-3-yl)propyl)phenoxy)cyclopentanecarboxylic acid]

IC50 (human PPARα; [1]): 0.01 µM
SMILES: COc1ccc(-c2ccc(CCCC3=NN(Cc4ccc(C(C)(C)C)cc4)C(=O)C3(C)C)cc2)nc1NS(=O)(=O)c1ccccc1 [Example 59, N-(6-(4-(3-(1-(4-(tert-butyl)benzyl)-4,4-dimethyl-5-oxo-4,5-dihydro-1H-pyrazol-3-yl)propyl)phenyl)-3-methoxypyridin-2-yl)benzenesulfonamide]
